Measurements published in ChEMBL document CHEMBL3784933, “Synthesis and antitumor evaluation of trimethoxyanilides based on 4(3H)-quinazolinone scaffolds” (2016).

Legend:
Assay type in all cases: functional
Malme-3M = test: Cytotoxicity against human MALME-3M cells assessed as growth inhibition at 10 uM after 48 hrs by SRB assay; details: read-out: GI
[1] = Cytotoxicity against human Caki1 cells assessed as growth inhibition at 10 uM after 48 hrs by SRB assay; details: CAKI-1, 48 h, read-out: GI
SK-MEL-5 = test: Cytotoxicity against human SK-MEL-5 cells assessed as growth inhibition at 10 uM after 48 hrs by SRB assay; details: SK-MEL-5, 48 h, read-out: GI
[2] = Cytotoxicity against human OVCAR5 cells assessed as growth inhibition at 10 uM after 48 hrs by SRB assay; details: OVCAR-5, 48 h, read-out: GI
786-0 = test: Cytotoxicity against human 786-0 cells assessed as growth inhibition at 10 uM after 48 hrs by SRB assay; details: 786-0, 48 h, read-out: GI
[3] = Cytotoxicity against human IGROV1 cells assessed as growth inhibition at 10 uM after 48 hrs by SRB assay; details: IGROV-1, 48 h, read-out: GI
[4] = Cytotoxicity against human RXF393 cells assessed as growth inhibition at 10 uM after 48 hrs by SRB assay; details: RXF 393, 48 h, read-out: GI
[5] = Cytotoxicity against human MOLT4 cells assessed as growth inhibition at 10 uM after 48 hrs by SRB assay; details: MOLT-4, 48 h, read-out: GI
[6] = Cytotoxicity against human Hs 578T cells assessed as growth inhibition at 10 uM after 48 hrs by SRB assay; details: read-out: GI
MCF7 = test: Cytotoxicity against human MCF7 cells assessed as growth inhibition at 10 uM after 48 hrs by SRB assay; details: MCF7, 48 h, read-out: GI
NCI-H23 = test: Cytotoxicity against human NCI-H23 cells assessed as growth inhibition at 10 uM after 48 hrs by SRB assay; details: NCI-H23, 48 h, read-out: GI
[7] = Cytotoxicity against human OVCAR8 cells assessed as growth inhibition at 10 uM after 48 hrs by SRB assay; details: OVCAR-8, 48 h, read-out: GI
ACHN = test: Cytotoxicity against human ACHN cells assessed as growth inhibition at 10 uM after 48 hrs by SRB assay; details: read-out: GI
MDA-MB-435 = test: Cytotoxicity against human MDA-MB-435 cells assessed as growth inhibition at 10 uM after 48 hrs by SRB assay; details: MDA-MB-435, 48 h, read-out: GI
[8] = Cytotoxicity against human HCT116 cells assessed as growth inhibition at 10 uM after 48 hrs by SRB assay; details: HCT-116, 48 h, read-out: GI
[9] = Cytotoxicity against human OVCAR3 cells assessed as growth inhibition at 10 uM after 48 hrs by SRB assay; details: OVCAR-3, 48 h, read-out: GI
KM12 = test: Cytotoxicity against human KM12 cells assessed as growth inhibition at 10 uM after 48 hrs by SRB assay; details: KM12, 48 h, read-out: GI
[10] = Cytotoxicity against human SF295 cells assessed as growth inhibition at 10 uM after 48 hrs by SRB assay; details: SF-295, 48 h, read-out: GI
[11] = Cytotoxicity against human NCI-H322 cells assessed as growth inhibition at 10 uM after 48 hrs by SRB assay; details: NCI-H322, 48 h, read-out: GI
NCI-H226 = test: Cytotoxicity against human NCI-H226 cells assessed as growth inhibition at 10 uM after 48 hrs by SRB assay; details: NCI-H226, 48 h, read-out: GI
EKVX = test: Cytotoxicity against human EKVX cells assessed as growth inhibition at 10 uM after 48 hrs by SRB assay; details: read-out: GI
[12] = Cytotoxicity against human HOP92 cells assessed as growth inhibition at 10 uM after 48 hrs by SRB assay; details: HOP-92, 48 h, read-out: GI
[13] = Cytotoxicity against human PC3 cells assessed as growth inhibition at 10 uM after 48 hrs by SRB assay; details: PC-3, 48 h, read-out: GI
T47D = test: Cytotoxicity against human T47D cells assessed as growth inhibition at 10 uM after 48 hrs by SRB assay; details: read-out: GI
[14] = Cytotoxicity against human OVCAR4 cells assessed as growth inhibition at 10 uM after 48 hrs by SRB assay; details: OVCAR-4, 48 h, read-out: GI
[15] = Cytotoxicity against human SKOV3 cells assessed as growth inhibition at 10 uM after 48 hrs by SRB assay; details: SK-OV-3, 48 h, read-out: GI
M14 = test: Cytotoxicity against human M14 cells assessed as growth inhibition at 10 uM after 48 hrs by SRB assay; details: M14, 48 h, read-out: GI
[16] = Cytotoxicity against human UACC62 cells assessed as growth inhibition at 10 uM after 48 hrs by SRB assay; details: UACC-62, 48 h, read-out: GI
[17] = Cytotoxicity against human LOXIMVI cells assessed as growth inhibition at 10 uM after 48 hrs by SRB assay; details: LOX IMVI, read-out: GI
MDA-MB-231 = test: Cytotoxicity against human MDA-MB-231 cells assessed as growth inhibition at 10 uM after 48 hrs by SRB assay; details: MDA-MB-231, 48 h, read-out: GI
[18] = Cytotoxicity against human SNB19 cells assessed as growth inhibition at 10 uM after 48 hrs by SRB assay; details: SNB-19, 48 h, read-out: GI
[19] = Cytotoxicity against human SF268 cells assessed as growth inhibition at 10 uM after 48 hrs by SRB assay; details: SF-268, 48 h, read-out: GI
[20] = Cytotoxicity against human UO31 cells assessed as growth inhibition at 10 uM after 48 hrs by SRB assay; details: UO-31, 48 h, read-out: GI
A549 = test: Cytotoxicity against human A549 cells assessed as growth inhibition at 10 uM after 48 hrs by SRB assay; details: A549, 48 h, read-out: GI
[21] = Cytotoxicity against human NCI-ADR-RES cells assessed as growth inhibition at 10 uM after 48 hrs by SRB assay; details: read-out: GI
[22] = Cytotoxicity against human SNB75 cells assessed as growth inhibition at 10 uM after 48 hrs by SRB assay; details: SNB-75, 48 h, read-out: GI
[23] = Cytotoxicity against human HCT15 cells assessed as growth inhibition at 10 uM after 48 hrs by SRB assay; details: HCT-15, 48 h, read-out: GI
K562 = test: Cytotoxicity against human K562 cells assessed as growth inhibition at 10 uM after 48 hrs by SRB assay; details: K562, 48 h, read-out: GI
A498 = test: Cytotoxicity against human A498 cells assessed as growth inhibition at 10 uM after 48 hrs by SRB assay; details: A498, 48 h, read-out: GI
SN12C = test: Cytotoxicity against human SN12C cells assessed as growth inhibition at 10 uM after 48 hrs by SRB assay; details: read-out: GI
NCI-H522 = test: Cytotoxicity against human NCI-H522 cells assessed as growth inhibition at 10 uM after 48 hrs by SRB assay; details: NCI-H522, 48 h, read-out: GI
U-251 = test: Cytotoxicity against human U251 cells assessed as growth inhibition at 10 uM after 48 hrs by SRB assay; details: U-251, 48 h, read-out: GI
[24] = Cytotoxicity against human RPMI8226 cells assessed as growth inhibition at 10 uM after 48 hrs by SRB assay; details: RPMI-8226, 48 h, read-out: GI
CCRF-CEM = test: Cytotoxicity against human CCRF-CEM cells assessed as growth inhibition at 10 uM after 48 hrs by SRB assay; details: read-out: GI
[25] = Cytotoxicity against human UACC257 cells assessed as growth inhibition at 10 uM after 48 hrs by SRB assay; details: UACC-257, 48 h, read-out: GI
[26] = Cytotoxicity against human SF539 cells assessed as growth inhibition at 10 uM after 48 hrs by SRB assay; details: SF-539, 48 h, read-out: GI
SK-MEL-2 = test: Cytotoxicity against human SK-MEL-2 cells assessed as growth inhibition at 10 uM after 48 hrs by SRB assay; details: SK-MEL-2, 48 h, read-out: GI
[27] = Cytotoxicity against human BT549 cells assessed as growth inhibition at 10 uM after 48 hrs by SRB assay; details: BT-549, 48 h, read-out: GI

COc1cc(NC(=O)CSc2nc3ccc(Cl)cc3c(=O)n2-c2ccc(F)cc2)cc(OC)c1OC
inhibition of growth at 10 µM (Malme-3M): 15%
inhibition of growth at 10 µM [1]: 29%
inhibition of growth at 10 µM (SK-MEL-5): 27%
inhibition of growth at 10 µM [2]: 12%
inhibition of growth at 10 µM (786-0): 25%
inhibition of growth at 10 µM [3]: 14%
inhibition of growth at 10 µM [4]: 20%
inhibition of growth at 10 µM [5]: 39%
inhibition of growth at 10 µM [6]: 26%
inhibition of growth at 10 µM (MCF7): 13%
inhibition of growth at 10 µM (NCI-H23): 15%
inhibition of growth at 10 µM [7]: 12%
inhibition of growth at 10 µM (ACHN): 15%
inhibition of growth at 10 µM (MDA-MB-435): 10%
inhibition of growth at 10 µM [8]: 21%
inhibition of growth at 10 µM [9]: 20%
inhibition of growth at 10 µM (KM12): 15%
inhibition of growth at 10 µM [10]: 20%
inhibition of growth at 10 µM [11]: 14%
inhibition of growth at 10 µM (NCI-H226): 17%
inhibition of growth at 10 µM (EKVX): 33%
inhibition of growth at 10 µM [12]: 64%
inhibition of growth at 10 µM [13]: 27%
inhibition of growth at 10 µM (T47D): 28%
inhibition of growth at 10 µM [14]: 23%
inhibition of growth at 10 µM [15]: 13%
inhibition of growth at 10 µM (M14): 16%
inhibition of growth at 10 µM [16]: 29%
inhibition of growth at 10 µM [17]: 27%
inhibition of growth at 10 µM (MDA-MB-231): 34%
inhibition of growth at 10 µM [18]: 18%
inhibition of growth at 10 µM [19]: 21%
inhibition of growth at 10 µM [20]: 60%
inhibition of growth at 10 µM (A549): 17%
inhibition of growth at 10 µM [21]: 19%
inhibition of growth at 10 µM [22]: 28%
inhibition of growth at 10 µM [23]: 16%
inhibition of growth at 10 µM (K562): 20%
inhibition of growth at 10 µM (A498): 66%
inhibition of growth at 10 µM (SN12C): 22%
inhibition of growth at 10 µM (NCI-H522): 21%
inhibition of growth at 10 µM (U-251): 18%
inhibition of growth at 10 µM [24]: 61%

COc1cc2nc(SCC(=O)Nc3cc(OC)c(OC)c(OC)c3)n(-c3ccccc3)c(=O)c2cc1OC
inhibition of growth at 10 µM (Malme-3M): 20%
inhibition of growth at 10 µM (SK-MEL-5): 10%
inhibition of growth at 10 µM [6]: 34%
inhibition of growth at 10 µM [7]: 40%
inhibition of growth at 10 µM [9]: 12%
inhibition of growth at 10 µM [10]: 11%
inhibition of growth at 10 µM [12]: 32%
inhibition of growth at 10 µM [13]: 17%
inhibition of growth at 10 µM (T47D): 15%
inhibition of growth at 10 µM (CCRF-CEM): 18%
inhibition of growth at 10 µM [15]: 12%
inhibition of growth at 10 µM (M14): 15%
inhibition of growth at 10 µM [16]: 19%
inhibition of growth at 10 µM [25]: 26%
inhibition of growth at 10 µM (MDA-MB-231): 16%
inhibition of growth at 10 µM [18]: 17%
inhibition of growth at 10 µM [26]: 17%
inhibition of growth at 10 µM [19]: 19%
inhibition of growth at 10 µM (SK-MEL-2): 22%
inhibition of growth at 10 µM [20]: 34%
inhibition of growth at 10 µM (A549): 14%
inhibition of growth at 10 µM [21]: 10%
inhibition of growth at 10 µM [22]: 20%
inhibition of growth at 10 µM (A498): 28%
inhibition of growth at 10 µM (SN12C): 11%
inhibition of growth at 10 µM (NCI-H522): 52%
inhibition of growth at 10 µM (U-251): 30%
inhibition of growth at 10 µM [27]: 13%
